Measurements from patent publication US20190328784A1, “CHIMERIC ANTIGEN RECEPTORS (CARS) SPECIFIC FOR MUC1 AND METHODS FOR THEIR USE” (Poseida Therapeutics, Inc., priority 2016, published 2019).
“Also recorded” adds a separate entry of the source. Read-outs that look alike come from different tables or passages of the source.

T1: cleaved, non-shed MUC1-C (Homo sapiens, UniProt P15941)
T1 construct: expressed in transfected cells; host or cells: K562, Raji and RPMI8226 cells modified to express MUC1-C
T1 sequence (P15941 with tags, fused parts or gaps): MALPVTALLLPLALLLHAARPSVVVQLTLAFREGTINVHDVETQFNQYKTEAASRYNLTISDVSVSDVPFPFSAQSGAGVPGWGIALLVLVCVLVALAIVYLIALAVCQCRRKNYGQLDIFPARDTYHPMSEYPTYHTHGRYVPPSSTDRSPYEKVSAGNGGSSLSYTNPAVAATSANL

B1: K2B-HL: MUC1 scFv CAR; single chain antibody SEQ ID NO: 10 (protein)
scFv: QVQLKESGPGLVAPSQSLSMTCTVSGFSLTTYGVHWVRQPPGKGLEWLVVIWSDGSTTYNSPLKSRLSISRDNSKSQVFLKMNSLQADDTAIYYCAKNYLGSLDYWGQGTSVTVSSGGGGSGGGGSGGGGSDVVLTQTPLSLPVSLGDQASISCRSSQSLVHNNGDTYLHWYLQKPGQSPKLLIYKVSNRFSGVPDRFSGSGSGTDFTFKISRVEAEDLGVYFCSQTTHVPLTFGAGTKLELK
modifications: left off: a dimerising Fc or GST
B2: F1C-HL: MUC1 scFv CAR; single chain antibody SEQ ID NO: 22 (protein)
scFv: QITLKESGPGILQPSQTLSLTCSFSGFSLSTSGMGVSWIRQPSGKGLEWLSHIYWDDDKRYNPSLKSRLSISKDTSRNQVFLKITSVDTADTATYYCAPGVSSWFPYWGPGTLVTVSAGGGGSGGGGSGGGGSSIVMTQTPKFLPVSAGDRVTVTCKASQSVGNYVAWYQQKPGQSPKLLIYFASNRYSGVPDRFTGSGSGTDFTFTISSVQVEDLAVYFCQQHYIFPYTFGSGTKLEIK
modifications: left off: a dimerising Fc or GST

Columns and labels:
cells [1] = assay: AP1903 amount needed in vitro for effective signaling of cells; type: cell-based; conditions: conversion with 1600 Da MW
Protocol: The fixed dose of AP1903 for injection used, for example, may be 0.4 mg/kg intravenously infused over 2 hours. The amount of AP1903 needed in vitro for effective signaling of cells is 10-100 nM (1600 Da MW). This equates to 16-160 μg/L or ^˜0.016-1.6 μg/kg (1.6-160 μg/kg). Doses up to 1 mg/kg were well-tolerated in the Phase I study of AP1903 described above. Therefore, 0.4 mg/kg may be a safe and effective dose of AP1903 for this Phase I study in combination with the therapeutic cells.

Human pan T-cells = assay: iC9 safety switch test: modified T cells incubated 24 hours with AP1903, viability by 7-AAD flow cytometry; type: cell-based; conditions: 24 hours incubation, 0-1000 nM tested
Excerpt: FIG. 7 is a series of flow cytometry plots depicting the abundance of cells moving from an area of live cells (the gated lower right quadrant) to an area populated by apoptotic cells (the upper left quadrant) as a function of increasing dosage of the induction agent (AP1903) in cells modified to express a therapeutic agent (a CARTyrin) alone or in combination with an inducible caspase polypeptide of the disclosure (encoded by an iC9 construct (also known as a “safety switch”) introduced into cells by a piggyBac (PB) transposase) at day 12 post nucleofection. […]
FIG. 9 is a pair of graphs depicting a quantification of the aggregated results shown either in FIG. 7 (left graph) or FIG. 8 (right graph). […]
To test the iC9 safety switch, each of the four modified T cells were incubated for 24 hours with 0, 0.1 nM, 1 nM, 10 nM, 100 nM or 1000 nM AP1903 (an induction agent for […]). Viability was assessed by flow cytometry using 7-aminoactinomycin D (7-AAD), a fluorescent intercalator, as a marker for cells undergoing apoptosis.

cells [2] = conditions: cited from earlier work
[3] = cited from earlier work
full length MUC1 = biological target: T2, full length MUC1 (Homo sapiens, UniProt P15941); assay: MUC1-scFv CAR function/epitope assay (degranulation, CD107a+ cells); type: cell-based; conditions: cells expressing full-length MUC1
T2 construct: expressed in transfected cells; host or cells: K562, Raji and RPMI8226 cells
T2 sequence (P15941 24-1255): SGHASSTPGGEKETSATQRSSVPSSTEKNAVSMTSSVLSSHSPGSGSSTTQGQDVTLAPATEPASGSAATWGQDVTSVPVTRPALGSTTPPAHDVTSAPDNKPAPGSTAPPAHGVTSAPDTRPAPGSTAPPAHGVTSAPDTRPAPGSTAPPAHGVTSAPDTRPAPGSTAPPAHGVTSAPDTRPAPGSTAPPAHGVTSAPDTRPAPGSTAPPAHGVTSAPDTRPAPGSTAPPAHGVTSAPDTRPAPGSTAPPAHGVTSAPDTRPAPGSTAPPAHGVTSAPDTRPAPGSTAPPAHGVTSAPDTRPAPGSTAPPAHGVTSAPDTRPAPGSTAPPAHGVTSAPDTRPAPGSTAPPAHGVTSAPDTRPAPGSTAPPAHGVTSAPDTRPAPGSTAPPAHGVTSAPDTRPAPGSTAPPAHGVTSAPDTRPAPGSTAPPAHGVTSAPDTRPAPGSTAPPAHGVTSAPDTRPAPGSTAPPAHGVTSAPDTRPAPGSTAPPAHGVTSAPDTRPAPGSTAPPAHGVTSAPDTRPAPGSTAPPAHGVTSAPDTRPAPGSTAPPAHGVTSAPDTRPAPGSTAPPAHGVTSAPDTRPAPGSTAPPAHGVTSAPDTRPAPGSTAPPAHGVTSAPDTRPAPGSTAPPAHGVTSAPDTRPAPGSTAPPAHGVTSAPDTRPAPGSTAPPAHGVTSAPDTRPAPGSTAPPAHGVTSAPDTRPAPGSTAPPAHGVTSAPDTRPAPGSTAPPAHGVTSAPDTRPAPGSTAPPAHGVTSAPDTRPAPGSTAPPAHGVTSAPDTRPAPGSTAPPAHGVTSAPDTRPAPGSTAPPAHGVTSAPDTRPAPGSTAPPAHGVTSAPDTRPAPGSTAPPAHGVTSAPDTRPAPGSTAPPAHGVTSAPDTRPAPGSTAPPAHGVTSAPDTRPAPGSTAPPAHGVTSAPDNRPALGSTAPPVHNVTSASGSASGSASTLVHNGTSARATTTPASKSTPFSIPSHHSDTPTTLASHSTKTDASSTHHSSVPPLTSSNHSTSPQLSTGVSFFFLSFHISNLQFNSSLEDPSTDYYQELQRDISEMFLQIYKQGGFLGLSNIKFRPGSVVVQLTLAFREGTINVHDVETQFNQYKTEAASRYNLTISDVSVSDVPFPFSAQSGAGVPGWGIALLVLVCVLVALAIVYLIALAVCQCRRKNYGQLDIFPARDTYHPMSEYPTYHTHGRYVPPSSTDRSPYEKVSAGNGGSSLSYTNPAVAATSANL
Protocol: (§1) FIG. 14 is a graph depicting a MUC1-scFv CAR function assay. […] MUC1-scFv function is measured by the extent of degranulation of the cells in each condition contacted with the MUC1-scFv along the X-axis. Degranulation was measured as the percentage of total cells that were CD107a-positive (CD107a+).
(§2) The results of a functional assay are provided in the graph wherein MUC1-C scFv-CAR function was measured by the extent of degranulation of the cells in each condition contacted with the MUC1-scFv along the X-axis. Degranulation was measured as the percentage of total cells that were CD107a-positive (CD107a+). The chart summarizes the relative activity of each MUC1-C scFv-CAR during the functional assay.
(§3) The function of each of the MUC1-scFv CARs described in this example was assayed in K562 cells, Raji cells and RPMI8226 cells (“8226”) cells in either unmodified conditions or following transfection with MUC1 constructs (either full-length or MUC1-C) to generate modified K562 cells, modified Raji cells and modified 8226 cells. Function of each of the MUC1-scFv CARs was measured by the CAR's ability to degranulate each cell type. Degranulation was measured by the percent of total cells that express […] (percentage of […] cells).
(§4) The F1C-HL, M1A-LH and K2B-HL MUC1-scFv CARs were further tested to determine epitope binding.

cleaved, non-shed MUC1-C = biological target: T1, cleaved, non-shed MUC1-C; assay: as above; type: cell-based; conditions: cells that received the extracellular MUC1-C construct
Protocol: as §1, §2, §3, §4

[4] = system: MUC1 expressed on activated T cells; assay: as above; type: cell-based, human
Protocol: as §2
As an initial study, MUC1 expression was assessed in different cell types (see FIG. 13). Cells included in this study: K562 cells (immortalized human chronic myelogenous leukemia cells), Raji cells (human hematopoietic cell line used as a model of cancer), Raji cells modified to express MUC1-C, activated T cells and RPMI8226 cells (human peripheral blood B cell plasmacytoma/myeloma cell line). MUC1 expression in each of these cells was assessed by staining with an anti-MUC1-N antibody.

unmodified cells = assay: as above; type: cell-based, human
Protocol: as §3, §4

| Molecule | amount needed for effective signaling of cells, converted (cells [1]) [µg/L] | amount needed for effective signaling of cells, converted to dose (cells [1]) [µg/kg] | concentration at which AP1903 induces apoptosis (lowest of the study) (Human pan T-cells) [nM] | amount needed in vitro for effective signaling of cells (cells [2]) [nM] | AP1903 plasma levels versus dose ([3]; 0.01-1.0 mg/kg dose range) | plasma levels as % of maximal concentration ([3]; 0.5 hours post-dose) | plasma levels as % of maximal concentration ([3]; 2 hours post-dose) [%] | plasma levels as % of maximal concentration ([3]; 10 hours post-dose) [%] | well-tolerated doses ([3]; Phase I study of AP1903) | mean Cmax ([3]; single doses 0.01-1.0 mg/kg infused IV over 2 hours, 24 healthy volunteers, plasma) [ng/mL] | CAR reactivity / binding (degranulation) (full length MUC1) | CAR reactivity / binding (degranulation) (cleaved, non-shed MUC1-C) | CAR reactivity (degranulation) [4] | CAR binding (degranulation) (unmodified cells) |
| --- | --- | --- | --- | --- | --- | --- | --- | --- | --- | --- | --- | --- | --- | --- |
| CC[C@H](C(=O)N1CCCC[C@H]1C(=O)O[C@H](CCc1ccc(OC)c(OC)c1)c1cccc(OCC(=O)NCCNC(=O)COc2cccc([C@@H](CCc3ccc(OC)c(OC)c3)OC(=O)[C@@H]3CCCCN3C(=O)[C@@H](CC)c3cc(OC)c(OC)c(OC)c3)c2)c1)c1cc(OC)c(OC)c(OC)c1 (relative stereo) [AP1903, 2-Piperidinecarboxylic acid, 1-[(2S)-1-oxo-2-(3,4,5-trimethoxyphenyl)butyl]−, 1,2-ethanediylbis[imino(2-oxo-2,1-ethanediyl)oxy-3,1-phenylene[(1R)-3-(3,4-dimethoxyphenyl)propylidene]]ester, [2S-[1(R*),2R*[S*[S*[1 (R*),2R*]]]]]-(9C1)] | 16 to 160 | 0.016 to 1.6 | ≤ 0.1 | 10 to 100 | directly proportional to dose | approximately 18% | ~7 | ~1 | up to 1 mg/kg | 10 to 1275 |  |  |  |  |
| B1 |  |  |  |  |  |  |  |  |  |  | not full length MUC1 | only reacts against cleaved, non-shed MUC1-C; also recorded: specifically binds |  |  |
| B2 |  |  |  |  |  |  |  |  |  |  | reacts against full length MUC1; also recorded: binds | binds | including that expressed on activated T cells | binds |
